Laboratory results from ChEMBL document CHEMBL4431312, “Development of an Orally Available and Central Nervous System (CNS) Penetrant Toxoplasma gondii Calcium-Dependent Protein Kinase 1 (TgCDPK1) Inhibitor with Minimal Human Ether-a-go-go-Related Gene (hERG) Activity for the Treatment of Toxoplasmosis” (J Med Chem, 2016).
In brackets after ≈: the same amount, converted by molar mass.

Assays:
[1] = target: Voltage-gated inwardly rectifying potassium channel KCNH2 (Homo sapiens, UniProt Q12809)
in vivo [2] = settings: BALB/c, mouse, plasma, po, 10 mg/kg
[3] = buffer, pH 6.5
[4] = target: Proto-oncogene tyrosine-protein kinase Src (Gallus gallus, UniProt P00523)
in vivo [5] = settings: BALB/c, mouse, plasma, po, 10 mg/kg; remark: listed apart in the source
in vitro [6] = settings: human, CRL8155 cells
in vitro [7] = settings: human, HepG2 cells
in vivo [8] = settings: BALB/c, mouse, plasma, po, 10 mg/kg; remark: listed apart in the source
in vivo [9] = settings: BALB/c, mouse, plasma, po, 10 mg/kg; remark: listed apart in the source
[10] = target: T1, Calmodulin-domain protein kinase 1 (Toxoplasma gondii, UniProt Q9BJF5)
T1 sequence (Q9BJF5 whole entry): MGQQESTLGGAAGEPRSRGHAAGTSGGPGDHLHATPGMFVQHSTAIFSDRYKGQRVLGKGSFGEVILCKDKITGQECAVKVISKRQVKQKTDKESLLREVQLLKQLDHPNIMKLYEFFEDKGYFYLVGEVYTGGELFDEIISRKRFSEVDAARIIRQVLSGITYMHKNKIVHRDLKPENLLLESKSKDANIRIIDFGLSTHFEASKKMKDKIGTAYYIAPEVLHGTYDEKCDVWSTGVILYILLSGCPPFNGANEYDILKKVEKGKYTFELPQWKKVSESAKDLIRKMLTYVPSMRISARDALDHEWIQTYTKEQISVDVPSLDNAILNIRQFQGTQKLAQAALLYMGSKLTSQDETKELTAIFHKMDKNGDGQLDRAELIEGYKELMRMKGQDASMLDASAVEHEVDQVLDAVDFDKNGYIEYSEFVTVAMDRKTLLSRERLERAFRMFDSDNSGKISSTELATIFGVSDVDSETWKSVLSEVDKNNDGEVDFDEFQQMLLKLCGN

Toxoplasma gondii = assay: microbe, parasite or virus in culture; settings: 44 h
[11] = mouse, in vivo, po, 10 mg/kg
[12] = mouse, in vivo, po, 10 mg/kg; remark: listed apart in the source
in vivo [13] = settings: BALB/c, mouse, plasma, po, 10 mg/kg; remark: listed apart in the source

Chain of Voltage-gated inwardly rectifying potassium channel KCNH2 (Q12809 whole entry): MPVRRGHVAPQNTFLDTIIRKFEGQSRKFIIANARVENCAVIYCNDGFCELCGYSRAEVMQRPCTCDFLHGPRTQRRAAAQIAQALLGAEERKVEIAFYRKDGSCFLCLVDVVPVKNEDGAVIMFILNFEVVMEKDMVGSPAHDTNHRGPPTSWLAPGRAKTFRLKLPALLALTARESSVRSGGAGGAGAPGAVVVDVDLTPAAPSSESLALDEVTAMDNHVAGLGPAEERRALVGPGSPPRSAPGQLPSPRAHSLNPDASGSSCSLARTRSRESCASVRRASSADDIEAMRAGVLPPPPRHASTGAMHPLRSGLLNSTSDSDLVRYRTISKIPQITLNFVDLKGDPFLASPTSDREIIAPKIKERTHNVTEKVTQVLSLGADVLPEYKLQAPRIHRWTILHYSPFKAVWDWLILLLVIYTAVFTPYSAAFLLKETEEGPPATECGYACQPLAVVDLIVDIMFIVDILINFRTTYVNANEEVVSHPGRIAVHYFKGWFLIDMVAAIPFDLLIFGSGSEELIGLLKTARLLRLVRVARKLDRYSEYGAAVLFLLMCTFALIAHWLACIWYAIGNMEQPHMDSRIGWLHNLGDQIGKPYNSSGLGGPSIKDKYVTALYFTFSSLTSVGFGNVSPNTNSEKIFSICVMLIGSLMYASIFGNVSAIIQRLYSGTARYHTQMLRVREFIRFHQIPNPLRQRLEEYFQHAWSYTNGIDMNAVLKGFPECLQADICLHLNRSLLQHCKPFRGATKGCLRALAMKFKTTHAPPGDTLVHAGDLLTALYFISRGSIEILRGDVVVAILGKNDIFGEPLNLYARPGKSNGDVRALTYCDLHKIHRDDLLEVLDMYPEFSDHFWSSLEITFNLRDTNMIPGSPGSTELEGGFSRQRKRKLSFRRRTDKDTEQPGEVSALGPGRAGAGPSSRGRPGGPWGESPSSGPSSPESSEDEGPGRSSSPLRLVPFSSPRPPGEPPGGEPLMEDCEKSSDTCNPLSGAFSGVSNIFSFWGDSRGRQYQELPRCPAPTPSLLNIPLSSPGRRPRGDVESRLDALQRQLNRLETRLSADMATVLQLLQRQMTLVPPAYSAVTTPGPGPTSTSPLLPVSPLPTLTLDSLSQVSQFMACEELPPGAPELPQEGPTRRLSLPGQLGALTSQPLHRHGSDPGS

Compound	IC50 [1]	CL/F (in vivo [2])	solubility [3]	IC50 [4]	half-life (in vivo [5])	GI50 at 48 h (in vitro [6])	GI50 at 48 h (in vitro [7])	AUC(0-inf) (in vivo [8])	Cmax (in vivo [9])	IC50 [10]	EC50 (Toxoplasma gondii)	Cmax [11]	Tmax [12]	Tmax (in vivo [13])
CC(C)(CO)Cn1nc(-c2ccc3nc(OC4CC4)ccc3c2)c2c(N)ncnc21	> 10 µM	21 mL/min	8 µM (≈ 3.24 µg/mL)	7.4 µM	0.683 h	> 10 µM	> 10 µM	0.065 µM·h	3900 nM					
CCOc1ccc2cc(-c3nn(CC4CN(C)C4)c4ncnc(N)c34)ccc2c1	1.4 µM			> 10 µM		> 10 µM	> 10 µM			0.006 µM				
Nc1ncnc2c1c(-c1ccc3nc(OC4CC4)ccc3c1)nn2CC1CCOCC1	> 10 µM	110 mL/min		> 10 µM		> 10 µM	> 10 µM	1.12 µM·h			0.081 µM	880 nM	0.5 h	
CN1CCC(Cn2nc(-c3ccc4cc(OC5CC5)ccc4c3)c3c(N)ncnc32)CC1	0.37 µM			> 10 µM		> 10 µM				0.0015 µM				
COCCOc1ccc2cc(-c3nn(CC4CCN(C)CC4)c4ncnc(N)c34)ccc2c1				> 10 µM		> 10 µM	> 10 µM							
CN1CCC(Cn2nc(-c3ccc4nc(OCC(F)(F)F)ccc4c3)c3c(N)ncnc32)CC1	0.5 µM													
Nc1ncnc2c1c(-c1ccc3cc(OC4CC4)ccc3c1)nn2CC(O)(C(F)(F)F)C(F)(F)F				> 10 µM		> 10 µM	> 10 µM							
CCOc1ccc2cc(-c3nn(CC4CNC4)c4ncnc(N)c34)ccc2c1	1.7 µM			> 10 µM		> 10 µM	> 10 µM			0.0032 µM				
CCOc1ccc2cc(-c3nn(CC4CN(C(C)=O)C4)c4ncnc(N)c34)ccc2c1	> 10 µM			1.1 µM		> 10 µM	> 10 µM			0.004 µM				
CC(C)Cn1nc(-c2ccc3cc(OC4CC4)ccc3c2)c2c(N)ncnc21	> 10 µM			3.7 µM		> 10 µM				0.0011 µM				
CN1CCC(Cn2nc(-c3ccc4cc(OC5CCC5)ccc4c3)c3c(N)ncnc32)CC1	0.2 µM			> 10 µM		> 10 µM	> 10 µM							
CN(C)CC(C)(C)Cn1nc(-c2ccc3nc(OC4CC4)ccc3c2)c2c(N)ncnc21	0.082 µM			> 10 µM		> 10 µM	> 10 µM							
CN1CCC(Cn2nc(-c3ccc4nc(OC5CC5)ccc4c3)c3c(N)ncnc32)CC1	1.7 µM			> 10 µM			> 10 µM							
CCOc1ccc2cc(-c3nn(CC4CCN(C)CC4)c4ncnc(N)c34)ccc2c1	0.4 µM	0.7 mL/min		> 10 µM		> 10 µM	> 10 µM					750 nM		2 h
CCOc1ccc2cc(-c3nn(CC(C)(C)O)c4ncnc(N)c34)ccc2c1				> 10 µM		> 10 µM	> 10 µM							
CCOc1ccc2cc(-c3nn(CC4CCN(C(C)=O)CC4)c4ncnc(N)c34)ccc2c1	> 10 µM	2.5 mL/min	48 µM (≈ 21.3 µg/mL)	> 10 µM		> 10 µM	> 10 µM	1.57 µM·h	890 nM					
CC1(Cn2nc(-c3ccc4cc(OC5CC5)ccc4c3)c3c(N)ncnc32)COC1	1.9 µM			> 10 µM		> 10 µM	> 10 µM			0.0021 µM				
CCOc1ccc2cc(-c3nn(CC(C)C)c4ncnc(N)c34)ccc2c1	> 10 µM			> 10 µM		> 10 µM	> 10 µM							
CC(C)(CO)Cn1nc(-c2ccc3nc(OCC(F)(F)F)ccc3c2)c2c(N)ncnc21				> 10 µM		> 10 µM	> 10 µM			0.017 µM				
CCOc1ccc2cc(-c3nn(CC(C)(C)O)c4ncnc(N)c34)ccc2n1	> 10 µM	0.2 mL/min		> 10 µM		> 10 µM	> 10 µM							
Nc1ncnc2c1c(-c1ccc3cc(OC4CC4)ccc3c1)nn2CC1CCOCC1	> 10 µM			0.37 µM		> 10 µM	> 10 µM			0.0024 µM				
CCOc1ccc2cc(-c3nn(CC4CCOCC4)c4ncnc(N)c34)ccc2c1	> 10 µM			> 10 µM		> 10 µM	> 10 µM			0.002 µM				
CC(C)(CO)Cn1nc(-c2ccc3cc(OC4CC4)ccc3c2)c2c(N)ncnc21	> 10 µM	6.7 mL/min		3.1 µM		> 10 µM	> 10 µM	0.517 µM·h			0.056 µM	390 nM		
CCOc1ccc2cc(-c3nn(CC4CCN(C)CC4)c4ncnc(N)c34)ccc2n1	10 µM	1.8 mL/min		> 10 µM	3.72 h	> 10 µM	> 10 µM		260 nM	0.0061 µM				3.33 h
CCOc1ccc2cc(-c3nn(CC4CCOCC4)c4ncnc(N)c34)ccc2n1	> 10 µM			> 10 µM		> 10 µM	> 10 µM							
CC1(Cn2nc(-c3ccc4nc(OC5CC5)ccc4c3)c3c(N)ncnc32)COC1	> 10 µM			> 10 µM		> 10 µM	> 10 µM							
CN1CCC(Cn2nc(-c3ccc4cc(OC5COC5)ccc4c3)c3c(N)ncnc32)CC1				> 10 µM		> 10 µM	> 10 µM			0.01 µM				
CC(C)Cn1nc(-c2ccc3nc(OC4CC4)ccc3c2)c2c(N)ncnc21	> 10 µM			> 10 µM		> 10 µM	> 10 µM							
CCOc1ccc2cc(-c3nn(CC4CCN(C(C)C)CC4)c4ncnc(N)c34)ccc2c1	0.3 µM			> 10 µM		> 10 µM	> 10 µM			0.01 µM				
CN1CCC(Cn2nc(-c3ccc4cc(OCC5CC5)ccc4c3)c3c(N)ncnc32)CC1	0.9 µM			> 10 µM		> 10 µM	> 10 µM							
